According to patent US11098010B2 (priority 2017, dated 2021):
Counter-ions that a name gives are not always drawn.

Each compound was assayed on HBV rcDNA in HepDE19 cells (assay: HepDE19 assay with bDNA quantitation of HBV rcDNA). Settings: HepDE19 cells, inhibition of rcDNA formation, 7 day incubation, top concentration 25 μM; read-out: DE-19 bDNA EC50.
Assay type: cell-based, hepatitis B virus (HBV)

SMILES	EC50
CC(C)n1nccc1COC(=O)N[C@H]1CCc2c(C(=O)Nc3ccc(F)c(Cl)c3)ccc(F)c21 [Compound 106, O-(1-Isopropyl-1H-pyrazol-5-yl)methyl, N—(S)-(4-((3-chloro-4-fluorophenyl)carbamoyl)-7-fluoro-2,3-dihydro-1H-inden-1-yl) carbamate]	0.17 µM
COC(=O)NC1c2c(F)ccc(C(=O)Nc3ccc(F)c(Cl)c3)c2CC1(C)C (stereo not shown) [Compound 121, O-Methyl, N-(4-((3-chloro-4-fluorophenyl)carbamoyl)-7-fluoro-2,2-dimethyl-2,3-dihydro-1H-inden-1-yl) carbamate]	> 25 µM
COC(=O)NC1c2c(F)ccc(C(=O)Nc3ccc(F)c(Cl)c3)c2CC1(C)C (stereo not shown) [Compound 122, O-Methyl, N-(4-((3-chloro-4-fluorophenyl)carbamoyl)-7-fluoro-2,2-dimethyl-2,3-dihydro-1H-inden-1-yl) carbamate]	0.47 µM

Same assay, conditions: Hepatitis B virus, HepDE19, 168 h, HepDE19 cells, inhibition of rcDNA formation, 7 day incubation, top concentration 25 μM; read-out: DE-19 bDNA EC50

SMILES	EC50
O=C(N[C@H]1CCc2c(C(=O)Nc3ccc(F)c(Cl)c3)ccc(F)c21)OCc1cocn1 [Compound 93, O-Oxazol-4-ylmethyl, N—(S)-(4-((3-chloro-4-fluorophenyl)carbamoyl)-7-fluoro-2,3-dihydro-1H-inden-1-yl) carbamate]	0.49 µM
O=C(N[C@H]1CCc2c(C(=O)Nc3ccc(F)c(Cl)c3)ccc(F)c21)OCc1ncco1 [Compound 94, O-Oxazol-2-ylmethyl, N—(S)-(4-((3-chloro-4-fluorophenyl)carbamoyl)-7-fluoro-2,3-dihydro-1H-inden-1-yl) carbamate]	0.07 µM
O=C(N[C@H]1CCc2c(C(=O)Nc3ccc(F)c(Cl)c3)ccc(F)c21)OCc1cnco1 [Compound 95, O-Oxazol-5-ylmethyl, N—(S)-(4-((3-chloro-4-fluorophenyl)carbamoyl)-7-fluoro-2,3-dihydro-1H-inden-1-yl) carbamate]	0.06 µM
Cn1ccc(C(=O)N[C@H]2CCc3c(C(=O)Nc4ccc(F)c(Cl)c4)ccc(F)c32)n1 [Compound 98, (S)—N-(4-((3-Chloro-4-fluorophenyl)carbamoyl)-7-fluoro-2,3-dihydro-1H-inden-1-yl)-1-methyl-1H-pyrazole-3-carboxamide]	0.82 µM
Cn1nccc1C(=O)N[C@H]1CCc2c(C(=O)Nc3ccc(F)c(Cl)c3)ccc(F)c21 [Compound 100, (S)—N-(4-((3-Chloro-4-fluorophenyl)carbamoyl)-7-fluoro-2,3-dihydro-1H-inden-1-yl)-1-methyl-1H-pyrazole-5-carboxamide]	0.74 µM
Cn1ccc(S(=O)(=O)N[C@H]2CCc3c(C(=O)Nc4ccc(F)c(Cl)c4)ccc(F)c32)n1 [Compound 101, (S)—N-(3-Chloro-4-fluorophenyl)-7-fluoro-1-((1-methyl-1H-pyrazole)-3-sulfonamido)-2,3-dihydro-1H-indene-4-carboxamide]	0.72 µM
Cn1cnc(COC(=O)N[C@H]2CCc3c(C(=O)Nc4ccc(F)c(Cl)c4)ccc(F)c32)n1 [Compound 102, O-(1-Methyl-1H-1,2,4-triazol-3-yl)methyl, N—(S)-(4-((3-chloro-4-fluorophenyl)carbamoyl)-7-fluoro-2,3-dihydro-1H-inden-1-yl) carbamate]	0.07 µM
Cn1nccc1COC(=O)N[C@H]1CCc2c(C(=O)Nc3ccc(F)c(Cl)c3)ccc(F)c21 [Compound 103, O-(1-Methyl-1H-pyrazol-5-yl)methyl, N—(S)-(4-((3-chloro-4-fluorophenyl)carbamoyl)-7-fluoro-2,3-dihydro-1H-inden-1-yl) carbamate]	0.1 µM
COCCOC(=O)N[C@H]1CCc2c(C(=O)Nc3ccc(F)c(Cl)c3)ccc(F)c21 [Compound 111, O-2-Methoxyethyl, N—(S)-(4-((3-chloro-4-fluorophenyl)carbamoyl)-7-fluoro-2,3-dihydro-1H-inden-1-yl) carbamate]	0.15 µM
O=C(N[C@H]1CCc2c(C(=O)Nc3ccc(F)c(Cl)c3)ccc(F)c21)c1ccccn1 [Compound 115, (S)—N-(4-((3-Chloro-4-fluorophenyl)carbamoyl)-7-fluoro-2,3-dihydro-1H-inden-1-yl)picolinamide]	2.2 µM
O=C(N[C@H]1CCc2c(C(=O)Nc3ccc(F)c(Cl)c3)ccc(F)c21)c1cncs1 [Compound 116, (S)—N-(4-((3-Chloro-4-fluorophenyl)carbamoyl)-7-fluoro-2,3-dihydro-1H-inden-1-yl)thiazole-5-carboxamide]	1.7 µM
CS(=O)(=O)N[C@H]1CCc2c(C(=O)Nc3ccc(F)c(Cl)c3)ccc(F)c21 [Compound 117, (S)—N-(3-chloro-4-fluorophenyl)-7-fluoro-1-(methylsulfonamido)-2,3-dihydro-1H-indene-4-carboxamide]	0.52 µM
O=C(CN1CCOCC1)N[C@H]1CCc2c(C(=O)Nc3ccc(F)c(Cl)c3)ccc(F)c21 [Compound 118, (S)—N-(3-Chloro-4-fluorophenyl)-7-fluoro-1-(2-morpholinoacetamido)-2,3-dihydro-1H-indene-4-carboxamide]	2.2 µM
O=C(N[C@H]1CCc2c(C(=O)Nc3ccc(F)c(Cl)c3)ccc(F)c21)c1ccncc1 [Compound 120, (S)—N-(4-((3-Chloro-4-fluorophenyl)carbamoyl)-7-fluoro-2,3-dihydro-1H-inden-1-yl)isonicotinamide]	0.24 µM
COC(=O)O[C@H]1CCc2c(C(=O)Nc3ccc(F)c(Cl)c3)ccc(F)c21 [Compound 123, (S)-4-(3-Chloro-4-fluorophenylcarbamoyl)-7-fluoro-2,3-dihydro-1H-inden-1-yl Methyl Carbonate]	0.76 µM
O=C(N[C@H]1CCc2c(C(=O)Nc3ccc(F)c(Cl)c3)ccc(F)c21)OCc1cscn1 [Compound 124, O-Thiazol-4-ylmethyl, N—(S)-(4-((3-chloro-4-fluorophenyl)carbamoyl)-7-fluoro-2,3-dihydro-1H-inden-1-yl) carbamate]	0.06 µM

Same assay, conditions: Hepatitis B virus, HepDE19, 168 h, read-out: DE-19 bDNA EC50 (μM), HepDE19 cells, inhibition of rcDNA formation, 7 day incubation, top concentration 25 μM

SMILES	EC50
O=C(N[C@H]1CCc2c(C(=O)Nc3ccc(F)c(Cl)c3)ccc(F)c21)OCCn1ccnc1 [Compound 96, O-2-(1H-Imidazol-1-yl)ethyl, N—(S)-(4-((3-chloro-4-fluorophenyl)carbamoyl)-7-fluoro-2,3-dihydro-1H-inden-1-yl) carbamate Hydrochloride]	0.3 µM
O=C(Nc1ccc(F)c(Cl)c1)c1ccc(F)c2c1CC[C@@H]2Nc1ccccn1 [Compound 97, (S)—N-(3-Chloro-4-fluorophenyl)-7-fluoro-1-(pyridin-2-ylamino)-2,3-dihydro-1H-indene-4-carboxamide Hydrochloride]	0.22 µM
O=C(N[C@H]1CCc2c(C(=O)Nc3ccc(F)c(Cl)c3)ccc(F)c21)OCCOc1ccccc1 [Compound 99, O-2-Phenoxyethyl, N—(S)-(4-((3-chloro-4-fluorophenyl)carbamoyl)-7-fluoro-2,3-dihydro-1H-inden-1-yl) carbamate]	1.22 µM
NC(=O)c1ccnc(N[C@H]2CCc3c(C(=O)Nc4ccc(F)c(Cl)c4)ccc(F)c32)n1 [Compound 104, (S)-2-((4-((3-Chloro-4-fluorophenyl)carbamoyl)-7-fluoro-2,3-dihydro-1H-inden-1-yl)amino)pyrimidine-4-carboxamide]	0.16 µM
Cc1ncsc1CCOC(=O)N[C@H]1CCc2c(C(=O)Nc3ccc(F)c(Cl)c3)ccc(F)c21 [Compound 105, O-2-(4-Methylthiazol-5-yl)ethyl, N—(S)-(4-((3-chloro-4-fluorophenyl)carbamoyl)-7-fluoro-2,3-dihydro-1H-inden-1-yl) carbamate]	0.19 µM
COc1ccc(COC(=O)N[C@H]2CCc3c(C(=O)Nc4ccc(F)c(Cl)c4)ccc(F)c32)nc1 [Compound 107, O-(5-Methoxypyridin-2-yl)methyl, N—(S)-(4-((3-chloro-4-fluorophenyl)carbamoyl)-7-fluoro-2,3-dihydro-1H-inden-1-yl) carbamate Hydrochloride]	1.2 µM
O=C(N[C@H]1CCc2c(C(=O)Nc3ccc(F)c(Cl)c3)ccc(F)c21)OC[C@@H]1CCCN1CC(F)(F)F [Compound 108, O-[(2S)-1-(2,2,2-Trifluoroethyl)pyrrolidin-2-yl]methyl, N-[(1S)-4-[(3-chloro-4-fluorophenyl)carbamoyl]-7-fluoro-2,3-dihydro-1H-inden-1-yl]carbamate Hydrochloride]	0.72 µM
O=C(N[C@H]1CCc2c(C(=O)Nc3ccc(F)c(Cl)c3)ccc(F)c21)OCc1ccc(F)cn1 [Compound 109, O-(5-Fluoropyridin-2-yl)methyl, N—(S)-(4-((3-chloro-4-fluorophenyl)carbamoyl)-7-fluoro-2,3-dihydro-1H-inden-1-yl) carbamate]	0.27 µM
O=C(N[C@H]1CCc2c(C(=O)Nc3ccc(F)c(Cl)c3)ccc(F)c21)OCCc1cn[nH]c1 [Compound 110, O-2-(1H-Pyrazol-4-yl)ethyl, N—(S)-(4-((3-chloro-4-fluorophenyl)carbamoyl)-7-fluoro-2,3-dihydro-1H-inden-1-yl) carbamate]	0.2 µM
O=C(N[C@H]1CCc2c(C(=O)Nc3ccc(F)c(Cl)c3)ccc(F)c21)OC[C@H]1CCCO1 [Compound 112, O—((R)-Tetrahydrofuran-2-yl)methyl, N—((S)-4-((3-chloro-4-fluorophenyl)carbamoyl)-7-fluoro-2,3-dihydro-1H-inden-1-yl) carbamate]	0.21 µM
O=C(N[C@H]1CCc2c(C(=O)Nc3ccc(F)c(Cl)c3)ccc(F)c21)OC1CCOCC1 [Compound 113, O-Tetrahydro-2H-pyran-4-yl, N—(S)-(4-((3-chloro-4-fluorophenyl)carbamoyl)-7-fluoro-2,3-dihydro-1H-inden-1-yl) carbamate]	0.31 µM
COCCCOC(=O)N[C@H]1CCc2c(C(=O)Nc3ccc(F)c(Cl)c3)ccc(F)c21 [Compound 114, O-3-Methoxypropyl, N—(S)-(4-((3-chloro-4-fluorophenyl)carbamoyl)-7-fluoro-2,3-dihydro-1H-inden-1-yl) carbamate]	0.47 µM
